From US20230091225A1, “Bifunctional chimeric heterocyclic compounds for targeted degradation of androgen receptors and use thereof” (HINOVA PHARMACEUTICALS INC., priority 2019, published 2023)
Where two headings read alike, the source gives them in different places.

Legend:
LNCaP/AR cells = assay: Inhibition of proliferation of LNCaP/AR prostate cancer cells (CCK-8); assay type: cell-based
androgen receptor (AR) = molecular target: T1, androgen receptor (AR) (Homo sapiens, UniProt P10275); assay: Degradation of androgen receptor (AR) protein in VCaP cells by ELISA; assay type: cell-based; conditions: for inhibition at 0.1 µM: read-out: % degradation
T1 sequence (P10275 1-920): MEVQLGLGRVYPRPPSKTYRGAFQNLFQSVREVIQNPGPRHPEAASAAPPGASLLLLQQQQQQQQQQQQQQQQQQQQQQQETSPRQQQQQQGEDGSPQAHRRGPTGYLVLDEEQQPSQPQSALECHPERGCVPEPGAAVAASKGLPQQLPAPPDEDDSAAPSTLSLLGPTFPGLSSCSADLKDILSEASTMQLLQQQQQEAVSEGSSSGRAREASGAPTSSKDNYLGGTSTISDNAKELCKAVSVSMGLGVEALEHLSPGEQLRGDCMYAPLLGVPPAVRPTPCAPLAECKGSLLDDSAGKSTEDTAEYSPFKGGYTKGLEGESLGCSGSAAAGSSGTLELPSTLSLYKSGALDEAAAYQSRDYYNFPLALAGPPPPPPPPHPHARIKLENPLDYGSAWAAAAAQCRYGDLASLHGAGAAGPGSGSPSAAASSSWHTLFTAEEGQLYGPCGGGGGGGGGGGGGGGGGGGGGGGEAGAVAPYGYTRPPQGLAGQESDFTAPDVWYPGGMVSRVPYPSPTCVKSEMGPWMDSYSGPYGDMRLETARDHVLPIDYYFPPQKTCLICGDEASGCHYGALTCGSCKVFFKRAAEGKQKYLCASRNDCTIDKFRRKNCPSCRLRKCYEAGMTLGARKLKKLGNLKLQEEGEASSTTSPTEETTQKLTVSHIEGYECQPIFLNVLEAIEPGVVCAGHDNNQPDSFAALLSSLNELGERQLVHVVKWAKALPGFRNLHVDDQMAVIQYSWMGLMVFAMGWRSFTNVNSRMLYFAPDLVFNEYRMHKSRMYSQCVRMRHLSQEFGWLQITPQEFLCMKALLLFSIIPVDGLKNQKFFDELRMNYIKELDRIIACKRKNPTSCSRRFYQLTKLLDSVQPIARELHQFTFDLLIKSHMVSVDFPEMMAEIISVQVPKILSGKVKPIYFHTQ

[1] = percentage of degraded AR at 100 nM, VCaP cells, 16 h, ELISA
[2] = 144 h, proliferation of LNCap/AR cells, 6 days, CCK-8, read-out: IC50

Compound | inhibition at 0.1 µM (androgen receptor (AR); [1]) [%] | IC50 (LNCaP/AR cells; [2]) [µM] | also measured
CC(=O)O[C@@H]1CC(C(=O)NC2(c3ccc(-c4scnc4C)cc3)CC2)N(C(=O)[C@@H](NC(=O)COCCCCCNc2ccc(C(=O)N[C@H]3C(C)(C)[C@H](Oc4ccc(C#N)c(Cl)c4)C3(C)C)cc2)C(C)(C)C)C1 (stereo partly drawn) [Compound 46, (3R,5S)-1-((S)-2-(2-((5-((4-(((1r,3r)-3-(3-chloro-4-cyanophenoxy)-2,2,4,4-tetramethylcyclobutyl)carbamoyl)phenyl)amino)pentyl)oxy)acetamido)-3,3-dimethylbutanol)-5-((1-(4-methylthiazol-5-yl)phenyl)cyclopropyl)carbamoyl) pyrrolidin-3-yl acetate] |  |  | IC50 (LNCaP/AR cells; LNCaP/AR, 144 h): < 0.1 µM; inhibition at 0.1 µM (androgen receptor (AR); VCaP, 16 h): 25 to 49%
CC(=O)O[C@@H]1C[C@@H](C(=O)N[C@@H](C)c2ccc(-c3scnc3C)cc2)N(C(=O)[C@@H](NC(=O)COCCCCCNc2ccc3c(c2)C(=O)N([C@H]2C(C)(C)[C@H](Oc4ccc(C#N)c(Cl)c4)C2(C)C)C3)C(C)(C)C)C1 [Compound 6, (3R,5S)-1-((S)-2-(2-((5-((2-((1R,3R)-3-(3-chloro-4-cyanophenoxy)-2,2,4,4-tetramethylcyclobutyl)-3-oxoisoindolin-5-yl)amino)pentyl)oxy)acetylamino)-3,3-dimethylbutyryl)-5-(((S)-1-(4-(4-methylthiazol-5)-yl)phenyl)ethyl)carbamoyl) pyrrolidin-3-yl acetate] | 50 to 79 |  | IC50 (LNCaP/AR cells; LNCaP/AR, 144 h): < 0.1 µM
CC1(C)[C@H](NC(=O)c2ccc(N3CCC(CN4CCN(c5cc6c(cc5F)C(=O)N(C5CCC(=O)NC5=O)C6)CC4)CC3)nc2)C(C)(C)[C@H]1Oc1ccc(C#N)c(Cl)c1 (some centres unmarked) [Compound 213] | 25 to 49 | > 1 | 
CC(=O)O[C@@H]1C[C@@H](C(=O)N[C@@H](C)c2ccc(-c3scnc3C)cc2)N(C(=O)[C@@H](NC(=O)COCC(C)OCC#Cc2ccc3c(c2)CN([C@H]2C(C)(C)[C@H](Oc4ccc(C#N)c(Cl)c4)C2(C)C)C3=O)C(C)(C)C)C1 (stereo partly drawn) [Compound 14, (3R,5S)-1-((2S)-2-(2-(2-((3-(2-((1r,3r)-3-(3-chloro-4-cyanophenoxy)-2,2,4,4-tetramethylcyclobutyl)-1-oxoisoindol-5-yl)prop-2-yn-1-yl)oxy)propoxy)acetylamino)-3,3-dimethylbutyryl)-5-((((S)-1-acetic acid (4-(4-methylthiazol-5-yl)phenyl)ethyl)carbamoyl)pyrrolidin-3-yl acetate] | 50 to 79 |  | IC50 (LNCaP/AR cells; LNCaP/AR, 144 h): < 0.1 µM
N#Cc1ccc(O[C@H]2CC[C@H](N3Cc4nc(N5CCC(CN6CCN(c7ccc8c(c7)C(=O)N(C7CCC(=O)NC7=O)C8=O)CC6)CC5)ccc4C3=O)CC2)cc1Cl (some centres unmarked) [Compound 57] |  |  | IC50 (LNCaP/AR cells): > 1 µM; % degradation (androgen receptor (AR)): D (key: A: >80%; B: 79%-50%; C: 49%-25%; D: <25%)
CC(=O)O[C@@H]1C[C@@H](C(=O)N[C@@H](C)c2ccc(-c3scnc3C)cc2)N(C(=O)[C@@H](NC(=O)COCCOCC#Cc2ccc3c(c2)CN([C@H]2C(C)(C)[C@H](Oc4ccc(C#N)c(Cl)c4)C2(C)C)C3=O)C(C)(C)C)C1 [Compound 12, (3R,5S)-1-((S)-2-(2-(2-((3-(2-((1r,3r)-3-(3-chloro-4-cyanophenoxy)-2,2,4,4-tetramethylcyclobutyl)-1-oxoisoindolin-5-yl)prop-2-yn-1-yl)oxy)propoxy)acetylamino)-3,3-dimethylbutyryl)-5-((((S)-1-acetic acid (4-(4-methylthiazol-5-yl)phenyl)ethyl)carbamoyl)pyrrolidin-3-yl acetate] | 50 to 79 |  | IC50 (LNCaP/AR cells; LNCaP/AR, 144 h): < 0.1 µM
(2R,4R)-1-((S)-2-(2-((6-(2-((1R,3R)-3-(3-chloro-4-cyanophenoxy)-2,2,4,4-tetramethylcyclobutyl)-3-oxoisoindolin-5-yl)hex-5-yn-1-yl)oxy)acetylamino)-3,3-dimethylbutyryl)-4-hydroxy-N-((S)-1-(4-(4-methylthiazol-5-yl)phenyl)ethyl) pyrrolidine-2-carboxamide [Compound 5] |  |  | IC50 (LNCaP/AR cells; proliferation of LNCap/AR cells, 6 days, CCK-8, read-out: IC50): < 0.1 µM; % degradation (androgen receptor (AR); [1]): C (49%-25%)
[2H]C([2H])([2H])N(C(=O)c1ccc(C#CCCCOCC(=O)N[C@H](C(=O)N2C[C@H](O)C[C@H]2C(=O)N[C@@H](C)c2ccc(-c3scnc3C)cc2)C(C)(C)C)cc1)[C@H]1C(C)(C)[C@H](Oc2ccc(C#N)c(Cl)c2)C1(C)C [Compound 22] | 25 to 49 | < 0.1 | 
N#Cc1ccc(O[C@H]2CC[C@H](N3Cc4nc(N5CCC(CN6CCN(c7ccc8c(c7)C(=O)N(C7CCC(=O)NC7=O)C8=O)CC6)CC5)ccc4C3=O)CC2)cc1Cl (some centres unmarked) [Compound 201] | 50 to 79 | > 1 | 
N#Cc1ccc(O[C@H]2CC[C@H](N3Cc4nc(N5CCN(CC6CCN(c7cc8c(cc7F)C(=O)N(C7CCC(=O)NC7=O)C8=O)CC6)CC5)ccc4C3=O)CC2)cc1Cl (some centres unmarked) [Compound 210] | < 25 | > 1 | 

Second part, led by results:

inhibition at 0.1 µM (androgen receptor (AR); [1]) [%] | IC50 (LNCaP/AR cells; [2]) [µM] | Compound | also measured
< 25 | > 1 | [2H]C([2H])([2H])N(C(=O)c1ccc(N2CCC(CN3CCN(c4cc5c(cc4F)CN(C4CCC(=O)NC4=O)C5=O)CC3)CC2)nc1)[C@H]1C(C)(C)[C@H](Oc2ccc(C#N)c(Cl)c2)C1(C)C (some centres unmarked) [Compound 215, N-((1r,3r)-3-(3-chloro-4-cyanophenoxy)-2,2,4,4-tetramethylcyclobutyl)-6-(4-((4-(2-(2,6-dioxopiperidin-3-yl)-6-fluoro-3-oxoisoindolin-5-yl)piperazin-1-yl)methyl)piperidin-1-yl)-N-(methyl-d3)nicotinamide] | 
50 to 79 | < 0.1 | Cc1ncsc1-c1ccc([C@H](C)NC(=O)[C@@H]2C[C@@H](O)CN2C(=O)[C@@H](NC(=O)COCCCN2CCN(c3ccc4c(c3)CN(C3C(C)(C)C(Oc5ccc(C#N)c(Cl)c5)C3(C)C)C4=O)CC2)C(C)(C)C)cc1 (some centres unmarked) [Compound 31] | 
< 25 | > 1 | CC(=O)O[C@@H]1C[C@@H](C(=O)N[C@@H](C)c2ccc(-c3scnc3C)cc2)N(C(=O)[C@@H](NC(=O)COCCCCCNc2ccc(NC(=O)N[C@H]3C(C)(C)[C@H](Oc4ccc(C#N)c(Cl)c4)C3(C)C)cc2)C(C)(C)C)C1 [Compound 1, (3R,5S)-1-((S)-2-(2-((5-((4-(3-((1R,3R)-3-(3-chloro-4-cyanophenoxy)-2,2,4,4-tetramethylcyclobutyl)ureido)phenyl)amino)pentyl)oxy)acetylamino)-3,3-dimethylbutyryl)-5-(((S)-1-(4-(4-methylthiazol-5-yl))phenyl)ethyl)carbamoyl) pyrrolidin-3-yl acetate] | 
50 to 79 | 0.1 to 0.5 | Cc1ncsc1-c1ccc([C@H](C)NC(=O)C2C[C@@H](O)CN2C(=O)[C@@H](NC(=O)COCCN2CCN(c3ccc4c(c3)CN([C@H]3C(C)(C)[C@H](Oc5ccc(C#N)c(Cl)c5)C3(C)C)C4=O)CC2)C(C)(C)C)cc1 (stereo partly drawn) [Compound 3, (2S,4R)-1-((S)-2-(2-(2-(4-(2-((1R,3R)-3-(3-chloro-4-cyanophenoxy)-2,2,4,4-tetramethylcyclobutyl)-1-oxoisoindolin-5-yl)piperazin-1-yl)ethoxy)acetylamino)-3,3-dimethylbutyryl)-4-hydroxy-N-((S)-1-(4-(4-methylthiazol-5-yl)phenyl)ethyl)pyrrolidine-2-carboxamide] | 
25 to 49 | > 1 | N#Cc1ccc(O[C@H]2CC[C@H](N3Cc4nc(N5CC[C@@H](CN6CCN(c7cc8c(cc7F)CN(C7CCC(=O)NC7=O)C8=O)CC6)C5)ccc4C3=O)CC2)cc1Cl (some centres unmarked) [Compound 54] | 
25 to 49 | < 0.1 | [2H]C([2H])([2H])N(C(=O)c1ccc(C#CCCCNC(=O)C2(C(=O)N[C@H](C(=O)N3C[C@H](O)C[C@H]3C(=O)N[C@@H](C)c3ccc(-c4scnc4C)cc3)C(C)(C)C)CC2)cc1)[C@H]1C(C)(C)[C@H](Oc2ccc(C#N)c(Cl)c2)C1(C)C [Compound 28] | 
< 25 | < 0.1 | [2H]C([2H])([2H])N(C(=O)c1ccc(C#CCCOCC(=O)N[C@H](C(=O)N2C[C@H](O)C[C@H]2C(=O)N[C@@H](C)c2ccc(-c3scnc3C)cc2)C(C)(C)C)cc1)[C@H]1C(C)(C)[C@H](Oc2ccc(C#N)c(Cl)c2)C1(C)C [Compound 26] | 
50 to 79 | < 0.1 | Cc1ncsc1-c1ccc(C2(NC(=O)C3C[C@@H](O)CN3C(=O)[C@@H](NC(=O)COCCCCCNc3ccc(C(=O)N[C@H]4C(C)(C)[C@H](Oc5ccc(C#N)c(Cl)c5)C4(C)C)cc3)C(C)(C)C)CC2)cc1 (some centres unmarked) [Compound 47] | 
< 25 | > 1 | N#Cc1ccc(O[C@H]2CC[C@H](N3Cc4nc(N5CCC(CN6CCN(c7cc8c(cc7F)CN(C7CCC(=O)NC7=O)C8=O)CC6)CC5)ccc4C3=O)CC2)cc1Cl (some centres unmarked) [Compound 203] | 
